The record followed here is ChEMBL document CHEMBL5465560, “Selectivity Literature for EUbOPEN Chemogenomic Library” (2024).

Test [1] addresses AP2-associated protein kinase 1 (Homo sapiens, UniProt Q2M2I8). In words: Selectivity interaction (LanthaScreen Eu Kinase Binding Assay) EUB0001632a AAK1. The conditions noted are these: at 10 µM. On the technique in general: In TR-FRET formats the signal depends on donor and acceptor labels being close together.
Test [2] concerns the target Mitogen-activated protein kinase 10 (Homo sapiens, UniProt P53779). In words: Selectivity interaction (Kinase panel (Z-LYTE Assay)) EUB0001632a MAPK10. The conditions noted are these: at 10 µM.
The target in test [3] is Cyclin-dependent kinase 14 (Homo sapiens) (UniProt O94921). Put plainly: Selectivity interaction (KinomeScan (DiscoverX)) EUB0000607a CDK14. The conditions noted are these: at 10 µM.
In test [4] the target is Calcium/calmodulin-dependent protein kinase type 1D (Homo sapiens) (UniProt Q8IU85). In words: Selectivity interaction (SelectScreen profiling (Invitrogen)) EUB0000607a CAMK1D. The conditions noted are these: at 2 µM.
Test [5] concerns the target Myosin-IIIa (Homo sapiens) (UniProt Q8NEV4). Put plainly: Selectivity interaction (KinomeScan (DiscoverX)) EUB0000229b MYO3A. The conditions noted are these: at 10 µM.
The target in test [6] is T1, Tyrosine-protein kinase JAK3 (Homo sapiens) (UniProt P52333).
T1 sequence (whole entry): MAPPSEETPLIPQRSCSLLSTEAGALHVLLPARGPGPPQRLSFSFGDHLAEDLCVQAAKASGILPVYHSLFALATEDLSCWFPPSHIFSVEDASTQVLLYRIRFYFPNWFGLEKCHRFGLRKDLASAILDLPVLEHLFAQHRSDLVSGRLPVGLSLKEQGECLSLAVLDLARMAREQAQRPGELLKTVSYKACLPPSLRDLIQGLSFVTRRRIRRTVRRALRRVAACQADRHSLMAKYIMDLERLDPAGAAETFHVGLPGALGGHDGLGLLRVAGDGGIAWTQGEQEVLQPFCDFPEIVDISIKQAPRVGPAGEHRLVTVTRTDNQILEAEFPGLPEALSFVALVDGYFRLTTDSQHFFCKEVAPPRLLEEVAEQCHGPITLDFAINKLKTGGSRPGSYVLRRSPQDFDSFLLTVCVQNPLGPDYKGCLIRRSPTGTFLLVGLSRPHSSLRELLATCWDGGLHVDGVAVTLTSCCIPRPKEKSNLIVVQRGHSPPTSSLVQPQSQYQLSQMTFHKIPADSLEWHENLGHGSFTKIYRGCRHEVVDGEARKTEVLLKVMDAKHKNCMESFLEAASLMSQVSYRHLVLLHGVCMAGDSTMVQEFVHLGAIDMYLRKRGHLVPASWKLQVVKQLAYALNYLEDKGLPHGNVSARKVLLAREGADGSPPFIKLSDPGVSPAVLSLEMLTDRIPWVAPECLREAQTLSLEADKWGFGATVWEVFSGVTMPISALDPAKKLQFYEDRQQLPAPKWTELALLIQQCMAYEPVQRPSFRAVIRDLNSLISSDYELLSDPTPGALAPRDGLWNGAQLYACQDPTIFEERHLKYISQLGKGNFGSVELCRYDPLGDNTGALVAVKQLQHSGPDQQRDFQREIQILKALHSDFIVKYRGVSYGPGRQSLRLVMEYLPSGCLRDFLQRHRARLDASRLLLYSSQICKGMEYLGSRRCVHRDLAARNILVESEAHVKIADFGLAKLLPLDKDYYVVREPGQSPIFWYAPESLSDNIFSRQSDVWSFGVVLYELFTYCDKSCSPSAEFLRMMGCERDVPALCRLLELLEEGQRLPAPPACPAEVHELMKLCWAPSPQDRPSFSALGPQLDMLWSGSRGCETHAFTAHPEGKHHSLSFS
In words: Selectivity interaction (KinomeScan (DiscoverX)) EUB0001079a JAK3. The conditions noted are these: at 1 µM.

For test [7], the target named is Rho-associated protein kinase 1 (Homo sapiens) (UniProt Q13464). In words: Selectivity interaction (Kinase panel (literature)) EUB0001199aCl ROCK1. The conditions noted are these: at 1 µM.
The target of test [8] is Mitogen-activated protein kinase kinase kinase kinase 1 (Homo sapiens) (UniProt Q92918). Put plainly: Selectivity interaction (ActivX KiNativ screen (kinase selectivity in THP-1 cell lysates)) EUB0000639a MAP4K1. Type of test: subcellular. The conditions noted are these: lysate, at 0.2 µM.
The target of test [9] is Tyrosine-protein kinase Yes (Homo sapiens) (UniProt P07947). Put plainly: Selectivity interaction (KinomeScan (DiscoverX)) EUB0000695a YES1. The conditions noted are these: at 100 nM.
Test [10] deals with Serine/threonine-protein kinase Chk2 (Homo sapiens) (UniProt O96017). In words: Selectivity interaction (Kinase panel (DSF assay)) EUB0001559a CHEK2. Background: Differential scanning fluorimetry follows unfolding on heating by fluorescence.
In test [11] the target is Wee1-like protein kinase (Homo sapiens) (UniProt P30291). Put plainly: Selectivity interaction (KinomeScan (DiscoverX)) EUB0000045b WEE1.
Test [12] addresses T2, Ephrin type-A receptor 6 (Homo sapiens) (UniProt Q9UF33).
T2 sequence (whole entry): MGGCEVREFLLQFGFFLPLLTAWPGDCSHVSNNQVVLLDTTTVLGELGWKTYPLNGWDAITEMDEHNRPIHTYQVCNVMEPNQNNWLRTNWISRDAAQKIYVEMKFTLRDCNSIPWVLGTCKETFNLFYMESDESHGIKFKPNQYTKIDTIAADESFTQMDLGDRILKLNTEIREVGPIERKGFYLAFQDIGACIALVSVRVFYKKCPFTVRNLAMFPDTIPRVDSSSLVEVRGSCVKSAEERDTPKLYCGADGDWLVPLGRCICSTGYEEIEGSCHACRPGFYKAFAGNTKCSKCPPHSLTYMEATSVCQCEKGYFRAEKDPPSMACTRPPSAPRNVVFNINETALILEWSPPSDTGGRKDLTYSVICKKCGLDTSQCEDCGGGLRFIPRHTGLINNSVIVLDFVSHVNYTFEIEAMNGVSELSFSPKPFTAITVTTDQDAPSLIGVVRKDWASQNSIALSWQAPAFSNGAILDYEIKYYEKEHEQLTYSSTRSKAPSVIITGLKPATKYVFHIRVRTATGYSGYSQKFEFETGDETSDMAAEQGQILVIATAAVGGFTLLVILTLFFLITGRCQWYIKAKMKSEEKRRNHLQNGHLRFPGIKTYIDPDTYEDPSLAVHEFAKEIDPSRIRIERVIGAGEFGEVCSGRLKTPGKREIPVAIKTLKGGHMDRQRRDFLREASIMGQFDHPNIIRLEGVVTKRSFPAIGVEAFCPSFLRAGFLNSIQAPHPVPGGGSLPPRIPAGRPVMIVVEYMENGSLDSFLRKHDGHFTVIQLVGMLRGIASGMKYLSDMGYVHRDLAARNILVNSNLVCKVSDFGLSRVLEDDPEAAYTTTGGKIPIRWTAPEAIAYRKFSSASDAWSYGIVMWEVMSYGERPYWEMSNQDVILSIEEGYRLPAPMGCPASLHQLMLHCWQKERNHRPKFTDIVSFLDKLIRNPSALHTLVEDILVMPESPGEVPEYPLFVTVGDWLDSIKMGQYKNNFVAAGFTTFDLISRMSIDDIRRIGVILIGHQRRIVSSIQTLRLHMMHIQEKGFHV
In words: Selectivity interaction (KinomeScan (DiscoverX)) EUB0000045b EPHA6.

The target of test [13] is Serine/threonine-protein kinase 38 (Homo sapiens) (UniProt Q15208). Put plainly: Selectivity interaction (KinomeScan (DiscoverX)) EUB0000595a STK38. The conditions noted are these: at 10 µM.
Sequence of Serine/threonine-protein kinase 38 (Homo sapiens) (Q15208 2-465 limits assumed): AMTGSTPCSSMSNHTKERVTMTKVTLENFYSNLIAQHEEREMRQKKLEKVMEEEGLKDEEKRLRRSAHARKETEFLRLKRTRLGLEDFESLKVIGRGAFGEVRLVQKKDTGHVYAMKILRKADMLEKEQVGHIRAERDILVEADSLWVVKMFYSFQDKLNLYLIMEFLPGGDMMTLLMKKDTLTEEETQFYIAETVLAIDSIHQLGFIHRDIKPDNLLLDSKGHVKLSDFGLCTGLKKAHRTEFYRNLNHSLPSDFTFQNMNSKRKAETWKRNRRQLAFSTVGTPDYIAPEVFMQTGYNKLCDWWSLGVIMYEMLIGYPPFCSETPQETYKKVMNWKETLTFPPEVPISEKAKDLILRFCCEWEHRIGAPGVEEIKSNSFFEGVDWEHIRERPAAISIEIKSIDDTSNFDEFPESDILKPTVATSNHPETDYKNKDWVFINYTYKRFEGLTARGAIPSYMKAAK

Sequence of Wee1-like protein kinase (Homo sapiens) (P30291 whole entry, looked up): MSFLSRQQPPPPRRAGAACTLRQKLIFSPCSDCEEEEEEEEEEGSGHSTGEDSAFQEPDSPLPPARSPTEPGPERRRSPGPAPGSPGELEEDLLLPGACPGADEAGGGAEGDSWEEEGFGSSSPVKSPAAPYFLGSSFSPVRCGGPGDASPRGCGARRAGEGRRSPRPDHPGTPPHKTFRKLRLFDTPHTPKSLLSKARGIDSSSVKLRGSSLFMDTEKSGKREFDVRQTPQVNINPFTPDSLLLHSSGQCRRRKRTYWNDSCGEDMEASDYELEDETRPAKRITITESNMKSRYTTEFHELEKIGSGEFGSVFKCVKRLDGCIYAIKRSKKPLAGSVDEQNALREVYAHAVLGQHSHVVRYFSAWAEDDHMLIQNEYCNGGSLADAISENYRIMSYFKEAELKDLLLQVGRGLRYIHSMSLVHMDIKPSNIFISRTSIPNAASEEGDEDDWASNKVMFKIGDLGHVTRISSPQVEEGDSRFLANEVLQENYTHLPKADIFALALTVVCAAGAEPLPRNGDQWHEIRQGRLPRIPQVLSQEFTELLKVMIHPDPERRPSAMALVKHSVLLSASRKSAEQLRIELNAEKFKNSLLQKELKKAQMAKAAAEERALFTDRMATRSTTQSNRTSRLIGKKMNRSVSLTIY
Sequence of Mitogen-activated protein kinase kinase kinase kinase 1 (Homo sapiens) (Q92918 whole entry, looked up): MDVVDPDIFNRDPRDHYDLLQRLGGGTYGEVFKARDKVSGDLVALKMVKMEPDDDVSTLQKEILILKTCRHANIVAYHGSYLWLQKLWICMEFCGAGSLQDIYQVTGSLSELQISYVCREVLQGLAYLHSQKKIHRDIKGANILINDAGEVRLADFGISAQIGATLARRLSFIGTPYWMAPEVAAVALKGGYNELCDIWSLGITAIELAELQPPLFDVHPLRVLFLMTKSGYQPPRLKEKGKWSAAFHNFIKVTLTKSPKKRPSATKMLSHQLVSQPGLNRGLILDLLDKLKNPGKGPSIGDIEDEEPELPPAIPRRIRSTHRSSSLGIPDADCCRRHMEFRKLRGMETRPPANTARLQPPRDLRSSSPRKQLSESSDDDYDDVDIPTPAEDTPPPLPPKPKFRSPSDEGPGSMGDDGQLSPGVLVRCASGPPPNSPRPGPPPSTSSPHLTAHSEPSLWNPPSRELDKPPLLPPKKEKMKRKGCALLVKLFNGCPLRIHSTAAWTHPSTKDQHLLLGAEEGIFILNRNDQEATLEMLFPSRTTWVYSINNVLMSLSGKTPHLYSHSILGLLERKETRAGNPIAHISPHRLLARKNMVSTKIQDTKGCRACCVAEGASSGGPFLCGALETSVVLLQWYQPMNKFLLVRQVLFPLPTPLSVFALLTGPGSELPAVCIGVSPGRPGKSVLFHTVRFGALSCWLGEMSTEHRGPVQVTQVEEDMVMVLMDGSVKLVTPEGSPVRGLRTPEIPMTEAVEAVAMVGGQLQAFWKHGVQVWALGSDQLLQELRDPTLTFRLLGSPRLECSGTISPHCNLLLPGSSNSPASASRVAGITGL
Sequence of Tyrosine-protein kinase Yes (Homo sapiens) (P07947 2-543 limits assumed): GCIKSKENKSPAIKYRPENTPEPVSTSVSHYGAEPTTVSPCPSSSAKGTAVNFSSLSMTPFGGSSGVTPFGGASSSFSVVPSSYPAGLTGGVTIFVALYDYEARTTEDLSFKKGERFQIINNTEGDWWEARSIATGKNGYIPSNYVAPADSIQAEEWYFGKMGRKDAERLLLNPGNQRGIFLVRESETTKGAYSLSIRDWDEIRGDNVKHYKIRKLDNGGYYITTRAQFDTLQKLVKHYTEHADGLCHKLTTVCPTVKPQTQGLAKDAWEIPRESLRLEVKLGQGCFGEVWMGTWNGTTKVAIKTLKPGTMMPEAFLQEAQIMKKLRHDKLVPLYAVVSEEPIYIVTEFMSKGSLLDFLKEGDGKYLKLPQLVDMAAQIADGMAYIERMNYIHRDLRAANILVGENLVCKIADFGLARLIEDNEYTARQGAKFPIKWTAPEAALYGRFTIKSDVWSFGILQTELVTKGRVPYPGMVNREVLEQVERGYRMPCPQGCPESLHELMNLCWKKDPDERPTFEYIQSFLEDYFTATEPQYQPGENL
Sequence of Serine/threonine-protein kinase Chk2 (Homo sapiens) (O96017 whole entry): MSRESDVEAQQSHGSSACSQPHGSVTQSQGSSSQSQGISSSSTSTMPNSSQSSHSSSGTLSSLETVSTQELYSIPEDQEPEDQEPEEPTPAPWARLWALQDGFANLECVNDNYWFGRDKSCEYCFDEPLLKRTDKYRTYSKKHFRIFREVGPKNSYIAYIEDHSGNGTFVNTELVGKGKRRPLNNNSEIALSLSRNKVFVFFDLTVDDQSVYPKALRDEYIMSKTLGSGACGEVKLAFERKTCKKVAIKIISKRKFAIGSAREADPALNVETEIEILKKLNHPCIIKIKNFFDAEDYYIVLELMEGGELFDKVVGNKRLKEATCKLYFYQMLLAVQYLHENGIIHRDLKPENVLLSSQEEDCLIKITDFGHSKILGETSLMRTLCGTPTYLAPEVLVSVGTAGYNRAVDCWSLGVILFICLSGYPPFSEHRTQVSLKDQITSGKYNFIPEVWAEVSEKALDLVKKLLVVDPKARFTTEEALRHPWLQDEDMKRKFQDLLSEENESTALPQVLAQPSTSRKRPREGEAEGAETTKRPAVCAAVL
Sequence of AP2-associated protein kinase 1 (Q2M2I8 whole entry, looked up): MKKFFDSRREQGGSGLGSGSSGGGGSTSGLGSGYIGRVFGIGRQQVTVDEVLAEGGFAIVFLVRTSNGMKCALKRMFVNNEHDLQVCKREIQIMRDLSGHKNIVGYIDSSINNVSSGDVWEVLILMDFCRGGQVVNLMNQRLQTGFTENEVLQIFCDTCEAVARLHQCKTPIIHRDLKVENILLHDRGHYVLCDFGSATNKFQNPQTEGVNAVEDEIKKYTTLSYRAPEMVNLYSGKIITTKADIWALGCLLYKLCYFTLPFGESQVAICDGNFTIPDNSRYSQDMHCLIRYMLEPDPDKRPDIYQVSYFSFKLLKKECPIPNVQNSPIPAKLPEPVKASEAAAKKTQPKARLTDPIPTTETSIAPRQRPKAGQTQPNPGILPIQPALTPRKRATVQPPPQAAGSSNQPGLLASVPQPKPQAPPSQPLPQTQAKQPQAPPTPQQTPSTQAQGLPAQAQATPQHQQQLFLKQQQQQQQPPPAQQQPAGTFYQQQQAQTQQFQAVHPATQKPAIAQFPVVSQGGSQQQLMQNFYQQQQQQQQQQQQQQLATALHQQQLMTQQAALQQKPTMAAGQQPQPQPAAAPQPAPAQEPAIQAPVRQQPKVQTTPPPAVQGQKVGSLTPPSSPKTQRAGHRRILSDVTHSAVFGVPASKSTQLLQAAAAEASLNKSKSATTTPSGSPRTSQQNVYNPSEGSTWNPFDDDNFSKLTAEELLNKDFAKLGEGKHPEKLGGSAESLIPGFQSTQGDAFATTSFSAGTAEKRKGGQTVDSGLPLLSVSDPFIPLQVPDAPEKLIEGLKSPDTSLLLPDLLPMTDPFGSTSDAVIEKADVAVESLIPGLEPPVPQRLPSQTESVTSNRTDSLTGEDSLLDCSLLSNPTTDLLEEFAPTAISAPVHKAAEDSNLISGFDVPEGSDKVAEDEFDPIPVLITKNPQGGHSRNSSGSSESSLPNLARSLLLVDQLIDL
Sequence of Mitogen-activated protein kinase 10 (P53779 whole entry): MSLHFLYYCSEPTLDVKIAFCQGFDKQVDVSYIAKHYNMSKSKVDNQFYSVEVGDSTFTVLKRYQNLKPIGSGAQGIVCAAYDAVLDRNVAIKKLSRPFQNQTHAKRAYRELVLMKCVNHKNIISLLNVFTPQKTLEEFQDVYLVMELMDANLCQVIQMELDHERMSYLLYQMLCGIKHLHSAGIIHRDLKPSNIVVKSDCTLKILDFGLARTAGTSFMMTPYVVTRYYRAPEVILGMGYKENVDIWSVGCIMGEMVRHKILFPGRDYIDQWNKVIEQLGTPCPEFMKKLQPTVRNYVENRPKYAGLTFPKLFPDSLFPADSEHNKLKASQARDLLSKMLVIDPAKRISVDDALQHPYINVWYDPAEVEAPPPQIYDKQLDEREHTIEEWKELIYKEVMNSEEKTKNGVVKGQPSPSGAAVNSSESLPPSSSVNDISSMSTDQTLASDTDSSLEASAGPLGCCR
Sequence of Cyclin-dependent kinase 14 (Homo sapiens) (O94921 whole entry): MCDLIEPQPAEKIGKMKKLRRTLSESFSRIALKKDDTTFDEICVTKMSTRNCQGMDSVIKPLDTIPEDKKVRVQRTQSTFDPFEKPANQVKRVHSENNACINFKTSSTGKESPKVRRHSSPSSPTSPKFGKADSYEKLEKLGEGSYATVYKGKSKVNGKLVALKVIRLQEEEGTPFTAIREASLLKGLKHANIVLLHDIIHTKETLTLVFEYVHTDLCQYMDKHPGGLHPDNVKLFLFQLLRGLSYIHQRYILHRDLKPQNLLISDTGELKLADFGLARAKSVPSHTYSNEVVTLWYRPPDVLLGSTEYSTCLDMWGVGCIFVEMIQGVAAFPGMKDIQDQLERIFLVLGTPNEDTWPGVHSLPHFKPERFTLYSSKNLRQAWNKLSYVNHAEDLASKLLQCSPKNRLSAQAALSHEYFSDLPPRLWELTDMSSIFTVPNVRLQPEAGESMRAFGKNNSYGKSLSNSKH

As for `Cn1cc(-n2cnc3c(NCc4nc5cc(Cl)c(Cl)cc5[nH]4)nc(N4CCOCC4)nc32)cn1`, the % of inhibition in test [1] amounted to 4.16%. For the same compound, the % of control in test [2] came to 3.04%.

As for `CNC(=O)Nc1ccc(-c2nc(N3CC4CCC(C3)O4)c3cnn(C4CCC5(CC4)OCCO5)c3n2)cc1`, in test [3], the % of control turned out to be 94%. Besides, the % of inhibition in [4] was 0%.

In test [5], `COc1cc(N(C)c2ccnc3ccc(C(F)(F)F)cc23)cc(OC)c1OC` returned a % binding of 94%.

Compound `Nc1cnc(N2CCc3cc(S(=O)(=O)Nc4c(F)cc(Cl)cc4F)cc(N4CCCC4=O)c32)nc1` [TP-020n] showed a % of control in test [6] of 100%.

Consider `CN1Cc2nccc(-c3cn(C)nc3-c3ccc(F)cc3)c2C1=O`, for which the % of inhibition in test [7] is -3%.

As for `CC[C@@H]1[C@H](F)C(=O)N[C@@H]1COc1nccc2cc(C(N)=O)c(OC)cc12` [ZIMLOVISERTIB], the % of inhibition in test [8] was -15.1%.

Regarding `Cc1cc(F)c(C(=O)Nc2cccc(-c3nncn3C(C)C)n2)cc1-n1cnc(C2CC2)c1`, in [9], the % of control amounted to 73%.

For the compound `CN(C(=O)c1cnn2cccnc12)c1cc2c(cc1N1CCOCC1)C(=O)N(C[C@@H](F)C(C)(C)O)C2`, the dTM in test [10] was found to be 0.2 K.

With `C=CC(=O)Nc1cc(-n2c(=O)ccc3cnc4ccc(-c5ccc(NS(C)(=O)=O)cc5)cc4c32)ccc1C`, the % of control came out at 100% in test [11] (at 1 µM), 92% in test [11] (at 10 µM), 96% in test [12] (at 1 µM) and 87% in test [12] (at 10 µM).

As for `COCC(=O)NC/C=C/c1ccc2ncnc(Nc3ccc(Oc4ccc(C)nc4)c(C)c3)c2c1` [CP-724714], the % of control in test [13] is 73%.
